# According to publication PMC11992225, “Antibacterial compounds against non-growing and intracellular bacteria” (npj Antimicrobials and Resistance, 2025):
# Assays:
# [1] = test system: non-growing UPEC CFT073; test: Dose-dependent killing analysis (CFU spot-plating) of stationary-phase UPEC; assay type: cell-based, Escherichia coli; details: E. coli in LPM (pH 5.5)
# Summary of the method: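 Non-growing (stationary-phase) UPEC CFT073 treated with compounds in 96-well format at 200 μl, then 10-fold serially diluted in PBS and 10 μl spots plated on LB agar. Plates incubated overnight at 37 °C; colonies counted at lowest resolvable dilution to give CFU. Three biological replicates.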
# [2] = test system: non-growing P. aeruginosa DSM1117; test: Dose-dependent killing analysis (CFU spot-plating) of stationary-phase P. aeruginosa; assay type: cell-based, Pseudomonas aeruginosa; details: P. aeruginosa
# Procedure: The cultures were grown and treated for 24 h in 1:4 CA-MHB (pH 7.4).
# For survival analysis, bacteria were cultivated as described for the dose–response dilution-regrowth assay. Assays with UPEC were conducted at the CBCS screening facility using 96-well plates with a 200 μl sample volume, and compounds were dispensed using the Echo® (Labcyte) system. P. aeruginosa and S. aureus samples were treated according to the protocol used for the dilution-regrowth experiments. Treated samples were serially diluted 10-fold in PBS, and 10 μl drops were spot-plated onto rectangular LB agar plates using either a Beckman NXP robot (for UPEC) or an Integra VIAFLO96 electronic pipette (for P. aeruginosa and S. aureus). The LB agar plates were incubated overnight at 37 °C and scanned. Colonies were counted at the spots of the lowest dilution where individual colonies could be accurately distinguished. Each colony was manually marked on a separate image layer using the GNU Image Manipulation Program, and counted using NIST’s Integrated Colony Enumerator (NICE 1.4) software. The experiments were performed in three biological replicates.
# [3] = test system: intracellular S. flexneri 5a M90T in TC7 cells; test: microbe, parasite or virus in culture; assay type: cell-based, Shigella flexneri; details: TC7 cells infected with GFP-expressing S. flexneri, 14 h treatment
compound,measurement,setting,value
CC(=O)[O][Pt]([NH2])([Cl])([Cl])([NH]C1CCCCC1)[O]C(C)=O [Satraplatin],"killing, average Δlog10(CFU/ml)",[1]; drug concentration 0.25,0.465 log10(CFU/ml)
same,"log10(CFU/ml) after treatment, replicate 1",[1]; drug concentration 0.25,6.778 log10(CFU/ml)
same,"log10(CFU/ml) after treatment, replicate 2",[1]; drug concentration 0.25,6.431 log10(CFU/ml)
same,"log10(CFU/ml) after treatment, replicate 3",[1]; drug concentration 0.25,7.447 log10(CFU/ml)
same,"killing, average Δlog10(CFU/ml)",[1]; drug concentration 0.5,0.567 log10(CFU/ml)
same,"log10(CFU/ml) after treatment, replicate 1",[1]; drug concentration 0.5,7.041 log10(CFU/ml)
same,"log10(CFU/ml) after treatment, replicate 2",[1]; drug concentration 0.5,6.079 log10(CFU/ml)
same,"log10(CFU/ml) after treatment, replicate 3",[1]; drug concentration 0.5,7.230 log10(CFU/ml)
same,"killing, average Δlog10(CFU/ml)",[1]; drug concentration 1,0.828 log10(CFU/ml)
same,"log10(CFU/ml) after treatment, replicate 1",[1]; drug concentration 1,6.778 log10(CFU/ml)
same,"log10(CFU/ml) after treatment, replicate 2",[1]; drug concentration 1,6.176 log10(CFU/ml)
same,"log10(CFU/ml) after treatment, replicate 3",[1]; drug concentration 1,6.613 log10(CFU/ml)
same,"killing, average Δlog10(CFU/ml)",[1]; drug concentration 2.5,1.360 log10(CFU/ml)
same,"log10(CFU/ml) after treatment, replicate 1",[1]; drug concentration 2.5,6.954 log10(CFU/ml)
same,"log10(CFU/ml) after treatment, replicate 2",[1]; drug concentration 2.5,5.903 log10(CFU/ml)
same,"log10(CFU/ml) after treatment, replicate 3",[1]; drug concentration 2.5,5.114 log10(CFU/ml)
same,"killing, average Δlog10(CFU/ml)",[1]; drug concentration 5,1.695 log10(CFU/ml)
same,"log10(CFU/ml) after treatment, replicate 1",[1]; drug concentration 5,6.146 log10(CFU/ml)
same,"log10(CFU/ml) after treatment, replicate 2",[1]; drug concentration 5,5.778 log10(CFU/ml)
same,"log10(CFU/ml) after treatment, replicate 3",[1]; drug concentration 5,5.041 log10(CFU/ml)
same,"killing, average Δlog10(CFU/ml)",[1]; drug concentration 10,2.758 log10(CFU/ml)
same,"log10(CFU/ml) after treatment, replicate 1",[1]; drug concentration 10,5.778 log10(CFU/ml)
same,"log10(CFU/ml) after treatment, replicate 2",[1]; drug concentration 10,=<4 log10(CFU/ml)
same,"log10(CFU/ml) after treatment, replicate 3",[1]; drug concentration 10,=<4 log10(CFU/ml)
same,"killing, average Δlog10(CFU/ml)",[2]; drug concentration 0.1,-0.012 log10(CFU/ml)
same,"log10(CFU/ml) after treatment, replicate 1",[2]; drug concentration 0.1,8.699 log10(CFU/ml)
same,"log10(CFU/ml) after treatment, replicate 2",[2]; drug concentration 0.1,9.301 log10(CFU/ml)
same,"log10(CFU/ml) after treatment, replicate 3",[2]; drug concentration 0.1,8.699 log10(CFU/ml)
same,"killing, average Δlog10(CFU/ml)",[2]; drug concentration 0.5,0.420 log10(CFU/ml)
same,"log10(CFU/ml) after treatment, replicate 1",[2]; drug concentration 0.5,8.477 log10(CFU/ml)
same,"log10(CFU/ml) after treatment, replicate 2",[2]; drug concentration 0.5,8.845 log10(CFU/ml)
same,"log10(CFU/ml) after treatment, replicate 3",[2]; drug concentration 0.5,8.079 log10(CFU/ml)
same,"killing, average Δlog10(CFU/ml)",[2]; drug concentration 2.5,1.880 log10(CFU/ml)
same,"log10(CFU/ml) after treatment, replicate 1",[2]; drug concentration 2.5,7.845 log10(CFU/ml)
same,"log10(CFU/ml) after treatment, replicate 2",[2]; drug concentration 2.5,8.477 log10(CFU/ml)
same,"log10(CFU/ml) after treatment, replicate 3",[2]; drug concentration 2.5,4.699 log10(CFU/ml)
same,"killing, average Δlog10(CFU/ml)",[2]; drug concentration 10,3.310 log10(CFU/ml)
same,"log10(CFU/ml) after treatment, replicate 1",[2]; drug concentration 10,5.000 log10(CFU/ml)
same,"log10(CFU/ml) after treatment, replicate 2",[2]; drug concentration 10,6.778 log10(CFU/ml)
same,"log10(CFU/ml) after treatment, replicate 3",[2]; drug concentration 10,4.954 log10(CFU/ml)
same,"Fluorescence intensity (RFU), Mean, 0.0625 x MIC",[3]; 0.0625 x MIC,9460.97 RFU
same,"Fluorescence intensity (RFU), Mean, 0.125 x MIC",[3]; 0.125 x MIC,9284.03 RFU
same,"Fluorescence intensity (RFU), Mean, 0.25 x MIC",[3]; 0.25 x MIC,8685.25 RFU
same,"Fluorescence intensity (RFU), Mean, 0.5 x MIC",[3]; 0.5 x MIC,7328.94 RFU
same,"Fluorescence intensity (RFU), Mean, 2 x MIC",[3]; 2 x MIC,2689 RFU
same,"Fluorescence intensity (RFU), Mean, MIC",[3]; MIC,4882 RFU
